Results from patent publication US8906383B2, “T cell receptor having binding affinity for a peptide-MHC complex and uses thereof” (King's College London, priority 2007, dated 2014).

How the values were obtained:
[1] = test system: soluble HLA-A2 molecules; settings: synthetic peptide; Chang et al., (2003) Tissue Antigens 62: 408-417; cited from earlier work
[2] = test system: CD8 T cells from HLA-A2+ type 1 diabetic patients; assay: Interferon-gamma cytokine ELISPOT with patient PBMCs; assay type: cell-based, human; settings: PBMCs of patients with new-onset type 1 diabetes and HLA-A2; peptide 10 μM; FIG. 8a
Method: The following ELISPOT assays were carried out using the methods substantially as described in Arif et al., (2004) J Clin Invest 113: 451-63.
Fresh peripheral blood mononuclear cells (PBMCs) in RPMI 1640 supplemented with antibiotics (TC medium; all Life Technologies) and 10% human AB serum (Harlan SeraLab, Leicestershire, UK) were dispensed into 48-well plates at a density of 2×10^6 cells in 0.5 ml supplemented with peptide to a final concentration of 10 μM and incubated at 37° C., 5% CO2, tilted by 5°. Control wells comprised TC medium containing an equivalent concentration of peptide diluent alone (DMSO). On day +1, 0.5 ml pre-warmed TC medium/10% AB was added and on day +2, non-adherent cells were re-suspended using pre-warmed TC medium/2% AB, washed, brought to a concentration of 1×10^6 cells/300 μl and 100 μl dispensed in triplicate into wells of 96-well ELISA plates (Nunc Maxisorp, Merck, Poole, UK) pre-blocked with 1% BSA in PBS and pre-coated with monoclonal anti-IFN-γ capture antibody (U-Cytech, Utrecht, NL). After capture at 37° C., 5% CO2 for 7 hours, cells were lysed in ice cold water, plates washed in PBS/Tween 20 and spots developed according to the manufacturer's instructions. Plates were dried and spots of 80-120 μm counted in a BioReader 3000 (BioSys, Karben, Germany). […]

Sequence: ALWGPDPAAA [PPI15-24]
- Capability of being loaded in-vitro by soluble HLA-A2 [1]: capable of being loaded in-vitro by soluble HLA-A2 molecules
- CD8 T cell reactivity to PPI peptide by interferon-gamma ELISPOT [2]: demonstrate the presence of CD8 T cells specific for

Sequence: WGPDPAAA [PPI17-24]
- CD8 T cell reactivity to PPI peptide by interferon-gamma ELISPOT [2]: demonstrate the presence of CD8 T cells specific for
